Reference: patent US9403850B2, “Beta-lactamase inhibitors” (priority 2013, dated 2016)

Experiments:
[1] = system: P. aeruginosa Ps296 expressing VIM-2; experiment: Broth microdilution MIC assay, partner meropenem; type: cell-based; conditions: Pseudomonas aeruginosa, read-out: MIC of Exemplary Compounds in presence of fixed β-lactams, Fixed Mero, P. aerug. Ps296 VIM-2
[2] = system: E. coli ESBL4 expressing CTX-M-15; experiment: Broth microdilution MIC assay, partner ceftazidime;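 note: ceftazidime held fixed at 4 µg/mL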; type: cell-based; conditions: Escherichia coli, read-out: MIC of Exemplary Compounds in presence of fixed β-lactams, Fixed CAZ, E. coli ESBL4 CTX-M-15
[3] = system: S. aureus MSSA-7 producing penicillinase PC-1; experiment: Broth microdilution MIC assay, partner piperacillin; type: cell-based; conditions: Staphylococcus aureus, fixed piperacillin 4 μg/mL, read-out: MIC of Exemplary Compounds in presence of fixed β-lactams, Fixed Pip, S. aureus MSSA-7 PC-1
[4] = target: T1, VIM-2 (Escherichia coli, UniProt Q5U7L7); experiment: β-Lactamase enzyme inhibition assay, VIM-2 (nitrocefin substrate); type: biochemical; conditions: nitrocefin substrate 100 μM, 15 min preincubation at 37° C.; read-out: IC50, Class B VIM-2
T1 construct: made in house; host or cells: E. coli BL21(DE3)
Procedure: For Vim-2 metallo β-lactamase, the procedure was identical with the following exceptions, first the protein was not pH adjusted to pH 5 with 50 mM sodium acetate, second, the chromatography step was changed to a 5 ml Q sepharose anion exchange column pre-equilibrated with 50 mM Hepes pH 7.5, and elution of the protein was achieved by a linear gradient of NaCl (0-600 mM). Finally, the VIM-2 purification required a second run (3rd step) on the Q sepharose anion exchange column to achieve acceptable purity (>90%).
An equal volume of diluted enzyme stock was added, and the plates were incubated at 37° C. for 15 min. Nitrocefin was used as substrate for p99 AmpC, VIM-2 and OXA-1 and dispensed into each well at a final concentration of 100 μM. Absorbance at 486 nm was immediately monitored for 10 min using a Biotek Powerwave XS2 microplate spectrophotometer using the GEN5 softweare package (Biotek Instruments, Winooski Vt.). In an analogous fashion, imipenem was used as substrate for Kpc-2 and Cefotaxime was used for SHV-5, while changes in absorbance upon hydrolysis of the β-lactam ring were monitored at 300 nm and 260 nm respectively in UV-transparent 96-well microtiter assay plates. Maximum rates of hydrolysis were compared to those in control wells (without inhibitors), and percentages of enzyme inhibition were calculated for each concentration of inhibitor. The concentration of inhibitor needed to reduce the initial rate of hydrolysis of substrate by 50% (IC50) was calculated as the residual activity of β-lactamase at 486 nm using GraFit version 7 kinetics software package (Erithacus Software, Surrey, UK).
Using the methodology described above, examples of the current invention were evaluated for their ability to inhibit β-lactamase enzymes from all four Ambler classifications (A through D). […] NT=Not tested.

[5] = system: K. pneumoniae 156319 expressing KPC-3; experiment: Broth microdilution MIC assay, partner meropenem; type: cell-based; conditions: Klebsiella pneumoniae, read-out: MIC of Exemplary Compounds in presence of fixed β-lactams, Fixed Mero, K.P. 156319 KPC-3
[6] = system: K. pneumoniae A-1797 expressing KPC-2 and VIM-4; experiment: Broth microdilution MIC assay, partner meropenem; type: cell-based; conditions: Klebsiella pneumoniae, read-out: MIC of Exemplary Compounds in presence of fixed β-lactams, Fixed Mero, K.P. A-1797 KPC-2 VIM-4
[7] = system: E. cloacae 144200 expressing Class C P99 AmpC; experiment: Broth microdilution MIC assay, partner ceftazidime; type: cell-based; conditions: for MIC: Enterobacter cloacae, read-out: MIC of Exemplary Compounds in presence of fixed β-lactams, Fixed CAZ, E. cl. 144200 p99 AmpC

Row | SMILES | MIC [1] | MIC [2] | MIC [3] | IC50 [4] | MIC [5] | MIC [6] | MIC [7] | MIC of Exemplary Compounds in presence of fixed β-lactams, Fixed CAZ, E. cl. 144200 p99 AmpC ([7]; fixed ceftazidime 4 μg/mL)
1 | NCCn1ccc2c(C(=O)N[C@H]3Cc4cccc(C(=O)O)c4OB3O)cccc21 [Example 42, (R)-3-{[1-(2-Amino-ethyl)-1H-indole-4-carbonyl]-amino}-2-hydroxy-3,4-dihydro-2H-benzo[e][1,2]oxaborinine-8-carboxylic acid] | < 4 mg/L | < 4 mg/L | < 4 mg/L | 0.1 to 1 µM | > 32 mg/L | 8 to 32 mg/L | < 4 mg/L | –
2 | NCCNC(=O)c1ccccc1C(=O)N[C@H]1Cc2cccc(C(=O)O)c2OB1O [Example 54, (R)-3-(2-(2-aminoethylcarbamoyl)benzamido)-2-hydroxy-3,4-dihydro-2H-benzo[e][1,2]oxaborinine-8-carboxylic acid] | < 4 mg/L | < 4 mg/L | > 32 mg/L | 1 to 10 µM | 8 to 32 mg/L | > 32 mg/L | < 4 mg/L | –
3 | NCc1ccc(CC(=O)N[C@H]2Cc3cccc(C(=O)O)c3OB2O)cc1CN [Example 20, (R)-3-(2-(3,4-bis(aminomethyl)phenyl)acetamido)-2-hydroxy-3,4-dihydro-2H-benzo[e][1,2]oxaborinine-8-carboxylic acid] | < 4 mg/L | < 4 mg/L | < 4 mg/L | < 0.1 µM | < 4 mg/L | < 4 mg/L | < 4 mg/L | –
4 | O=C(N[C@H]1Cc2cccc(C(=O)O)c2OB1O)c1cnc2[nH]ccc2c1 [Example 35, (R)-2-Hydroxy-3-[(1H-pyrrolo[2,3-b]pyridine-5-carbonyl)-amino]-3,4-dihydro-2H-benzo[e][1,2]oxaborinine-8-carboxylic acid] | < 4 mg/L | < 4 mg/L | < 4 mg/L | 0.1 to 1 µM | < 4 mg/L | > 32 mg/L | < 4 mg/L | –
5 | NCCNc1ccc(CC(=O)N[C@H]2Cc3cccc(C(=O)O)c3OB2O)cc1 [Example 57, (R)-3-(2-(4-(2-aminoethylamino)phenyl)acetamido)-2-hydroxy-3,4-dihydro-2H-benzo[e][1,2]oxaborinine-8-carboxylic acid] | < 4 mg/L | < 4 mg/L | < 4 mg/L | 1 to 10 µM | 8 to 32 mg/L | < 4 mg/L | < 4 mg/L | –
6 | CN1CCc2c(C(=O)N[C@H]3Cc4cccc(C(=O)O)c4OB3O)csc2C1 [Example 6, (R)-2-hydroxy-3-(6-methyl-4,5,6,7-tetrahydrothieno[2,3-c]pyridine-3-carboxamido)-3,4-dihydro-2H-benzo[e][1,2]oxaborinine-8-carboxylic acid] | > 32 mg/L | < 4 mg/L | < 4 mg/L | 1 to 10 µM | < 4 mg/L | 8 to 32 mg/L | < 4 mg/L | –
7 | CC(C)NCc1ccc(C(=O)N[C@H]2Cc3cccc(C(=O)O)c3OB2O)cc1CNC(C)C [Example 56, (R)-3-(3,4-bis((isopropylamino)methyl)benzamido)-2-hydroxy-3,4-dihydro-2H-benzo[e][1,2]oxaborinine-8-carboxylic acid] | < 4 mg/L | < 4 mg/L | < 4 mg/L | 0.1 to 1 µM | < 4 mg/L | < 4 mg/L | < 4 mg/L | –
8 | N=C(N)NCc1ccc(C(=O)N[C@H]2Cc3cccc(C(=O)O)c3OB2O)cc1CNC(=N)N [Example 25, (R)-3-(3,4-bis(guanidinomethyl)benzamido)-2-hydroxy-3,4-dihydro-2H-benzo[e][1,2]oxaborinine-8-carboxylic acid] | < 4 mg/L | < 4 mg/L | < 4 mg/L | < 0.1 µM | < 4 mg/L | < 4 mg/L | < 4 mg/L | –
9 | O=C(O)c1cccc2c1OB(O)[C@@H](NC(=O)c1c[nH]c3ncccc13)C2 [Example 8, (R)-2-hydroxy-3-(1H-pyrrolo[2,3-b]pyridine-3-carboxamido)-3,4-dihydro-2H-benzo[e][1,2]oxaborinine-8-carboxylic acid] | < 4 mg/L | < 4 mg/L | < 4 mg/L | 1 to 10 µM | > 32 mg/L | > 32 mg/L | < 4 mg/L | –
10 | O=C(O)c1ccccc1C(=O)N[C@H]1Cc2cccc(C(=O)O)c2OB1O [Example 53, (R)-3-(2-carboxybenzamido)-2-hydroxy-3,4-dihydro-2H-benzo[e][1,2]oxaborinine-8-carboxylic acid] | > 32 mg/L | < 4 mg/L | < 4 mg/L | 1 to 10 µM | < 4 mg/L | 8 to 32 mg/L | < 4 mg/L | –
11 | NCc1cc(CN)cc(C(=O)N[C@H]2Cc3cccc(C(=O)O)c3OB2O)c1 [Example 44, (R)-3-(3,5-bis(aminomethyl)benzamido)-2-hydroxy-3,4-dihydro-2H-benzo[e][1,2]oxaborinine-8-carboxylic acid] | > 32 mg/L | 8 to 32 mg/L | > 32 mg/L | 1 to 10 µM | > 32 mg/L | > 32 mg/L | – | A (A represents an MIC of the fixed β-lactam antibiotic in the presence of >32 μg/mL of a β-lactamase inhibitor of exemplary compounds)
12 | CC(C)NCc1cc(C(=O)N[C@H]2Cc3cccc(C(=O)O)c3OB2O)ccc1CN [Example 55, (R)-3-(4-(aminomethyl)-3-((isopropylamino)methyl)benzamido)-2-hydroxy-3,4-dihydro-2H-benzo[e][1,2]oxaborinine-8-carboxylic acid] | < 4 mg/L | < 4 mg/L | > 32 mg/L | 0.1 to 1 µM | 8 to 32 mg/L | > 32 mg/L | < 4 mg/L | –
13 | O=C(N[C@H]1Cc2cccc(C(=O)O)c2OB1O)c1ccc(-c2ncc[nH]2)cc1 [Example 47, (R)-2-Hydroxy-3-[4-(1H-imidazol-2-yl)-benzoylamino]-3,4-dihydro-2H-benzo[e][1,2]oxaborinine-8-carboxylic acid] | 8 to 32 mg/L | < 4 mg/L | < 4 mg/L | 0.1 to 1 µM | < 4 mg/L | > 32 mg/L | < 4 mg/L | –
14 | NCc1ccc(C(=O)N[C@H]2Cc3cccc(C(=O)O)c3OB2O)cc1CN [Example 14, (R)-3-(3,4-bis(aminomethyl)benzamido)-2-hydroxy-3,4-dihydro-2H-benzo[e][1,2]oxaborinine-8-carboxylic acid] | < 4 mg/L | < 4 mg/L | < 4 mg/L | < 0.1 µM | < 4 mg/L | < 4 mg/L | < 4 mg/L | –
15 | NC1=NCc2ccc(C(=O)N[C@H]3Cc4cccc(C(=O)O)c4OB3O)cc2CN1 [Example 17, (R)-3-(3-amino-4,5-dihydro-1H-benzo[e][1,3]diazepine-7-carboxamido)-2-hydroxy-3,4-dihydro-2H-benzo[e][1,2]oxaborinine-8-carboxylic acid] | 8 to 32 mg/L | < 4 mg/L | < 4 mg/L | < 0.1 µM | < 4 mg/L | < 4 mg/L | < 4 mg/L | –
16 | Cn1ccc2ccc(C(=O)N[C@H]3Cc4cccc(C(=O)O)c4OB3O)cc21 [Example 43, (R)-2-Hydroxy-3-[(1-methyl-1H-indole-6-carbonyl)-amino]-3,4-dihydro-2H-benzo[e][1,2]oxaborinine-8-carboxylic acid] | > 32 mg/L | < 4 mg/L | < 4 mg/L | 0.1 to 1 µM | > 32 mg/L | > 32 mg/L | < 4 mg/L | –
17 | O=C(N[C@H]1Cc2cccc(C(=O)O)c2OB1O)c1ccc2nccnc2c1 [Example 29, (R)-2-hydroxy-3-(quinoxaline-6-carboxamido)-3,4-dihydro-2H-benzo[e][1,2]oxaborinine-8-carboxylic acid] | > 32 mg/L | < 4 mg/L | < 4 mg/L | 1 to 10 µM | < 4 mg/L | > 32 mg/L | < 4 mg/L | –
